Patent US11046672B2, “Indolinones compounds and their use in the treatment of fibrotic diseases” (RESPIVERT LIMITED, priority 2015, dated 2021)
Where two headings read alike, the source gives them in different places.

Experiments:
PAMPA permeability assay = assay type: in vitro ADME; conditions: for Papp at 5 h, 10 μM: pH 7, pH 7, 10 μM
PDGFRβ [1] = molecular target: T1, PDGFRβ (Homo sapiens (Human), UniProt P09619); conditions: read-out: Ki PDGFRβ
PDGFRβ [2] = molecular target: T1, PDGFRβ; test: PDGF-BB induced phosphorylation of PDGFRβ in fibroblasts (MRC5 cells, HTRF); assay type: cell-based
MRC5 cells = test: Cell viability assay in MRC5 cells (MTT)
[3] = PAMPA, pH 7, PAMPA, donor and acceptor compartments
[4] = mean, n = 2 unless otherwise indicated
[5] = MRC5 cells, n = 1 unless otherwise indicated, read-out: PDGFBB-induced PDGFRβ phosphorylation in MRC5 cells (IC50)

T1 sequence (P09619 33-1106): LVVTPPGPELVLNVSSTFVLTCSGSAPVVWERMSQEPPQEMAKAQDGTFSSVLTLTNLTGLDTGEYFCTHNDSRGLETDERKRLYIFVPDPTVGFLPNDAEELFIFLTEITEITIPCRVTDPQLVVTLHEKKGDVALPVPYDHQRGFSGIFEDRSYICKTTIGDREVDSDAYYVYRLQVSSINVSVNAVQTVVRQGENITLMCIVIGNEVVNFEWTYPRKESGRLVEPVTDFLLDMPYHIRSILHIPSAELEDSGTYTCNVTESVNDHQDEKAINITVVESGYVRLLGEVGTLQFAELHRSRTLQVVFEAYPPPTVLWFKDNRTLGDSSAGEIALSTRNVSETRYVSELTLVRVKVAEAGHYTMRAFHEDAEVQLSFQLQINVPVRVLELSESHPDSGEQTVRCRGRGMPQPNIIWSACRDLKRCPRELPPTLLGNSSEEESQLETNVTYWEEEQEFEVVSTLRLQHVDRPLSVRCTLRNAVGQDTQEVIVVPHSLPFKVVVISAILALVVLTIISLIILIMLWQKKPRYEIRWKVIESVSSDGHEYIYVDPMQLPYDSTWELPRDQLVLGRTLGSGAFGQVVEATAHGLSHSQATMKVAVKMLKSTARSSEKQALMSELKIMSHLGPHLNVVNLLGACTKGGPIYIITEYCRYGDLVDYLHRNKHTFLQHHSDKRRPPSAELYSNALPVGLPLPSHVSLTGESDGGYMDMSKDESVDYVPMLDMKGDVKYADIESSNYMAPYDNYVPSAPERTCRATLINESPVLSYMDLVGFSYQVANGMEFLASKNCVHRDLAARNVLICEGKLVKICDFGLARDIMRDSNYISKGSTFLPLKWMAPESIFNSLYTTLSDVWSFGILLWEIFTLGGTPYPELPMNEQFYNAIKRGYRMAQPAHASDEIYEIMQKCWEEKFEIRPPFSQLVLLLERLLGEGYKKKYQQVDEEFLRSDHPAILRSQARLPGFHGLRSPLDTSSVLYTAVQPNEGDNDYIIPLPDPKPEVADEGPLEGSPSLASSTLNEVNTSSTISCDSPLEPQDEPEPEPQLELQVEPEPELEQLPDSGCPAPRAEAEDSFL

Q: Which results are given for `COC(=O)c1cc2c(cc1C)/C(=C(/Nc1ccc(C(=O)NOCCN3CC[C@H](N(C)C)C3)cc1)c1ccccc1)C(=O)N2` [Example 51]?
A: % Recovery (PAMPA permeability assay; PAMPA, donor and acceptor compartments): 74.7%; recovery at 5 hr, 10 μM (PAMPA permeability assay; [3]): 62%; Papp at 5 h, 10 μM (PAMPA permeability assay; PAMPA, 5 hr): 0.00306 ×10⁻⁶ cm/s; Mean Papp (PAMPA permeability assay; pH 7, 10 μM, 5 hr): 0.00474 10^−6 cm s^−1; Ki (PDGFRβ [1]; [4]): 0.00944 µM; IC50 (PDGFRβ [2]; [5]): 0.00939 µM; Cell viability at 100 nM (%) (MRC5 cells): 86.5%; Cell viability at 300 nM (%) (MRC5 cells): 85.8%; Cell viability at 1000 nM (%) (MRC5 cells): 71.2%

Q: With `COC(=O)c1cc2c(cc1C)/C(=C(/Nc1ccc(C(=O)NOCCN3CCC(OC)CC3)cc1)c1ccccc1)C(=O)N2` [Example 52] as the molecule, how does the recovery at 5 hr, 10 μM (PAMPA permeability assay; [3]) read?
A: 76.2%

Q: And the Papp at 5 h, 10 μM (PAMPA permeability assay; PAMPA, 5 hr)?
A: 0.279 ×10⁻⁶ cm/s

Q: What about the Ki (PDGFRβ [1]; [4]) of the same molecule?
A: 0.017 µM

Q: And the IC50 (PDGFRβ [2]; [5])?
A: 0.0218 µM

Q: What about the “Cell viability at 100 nM (%)” value (MRC5 cells) of the same molecule?
A: 62%

Q: What about the “Cell viability at 300 nM (%)” value (MRC5 cells) of the same molecule?
A: 50.9%

Q: And the “Cell viability at 1000 nM (%)” value (MRC5 cells)?
A: 59.8%

Q: With `COC(=O)c1ccc2c(c1)NC(=O)/C2=C(\Nc1ccc(C(=O)NOCCN2CCC(C#N)CC2)cc1)c1ccccc1` [Example 43] as the molecule, how does the recovery at 5 hr, 10 μM (PAMPA permeability assay; [3]) read?
A: 75.3%

Q: And the Papp at 5 h, 10 μM (PAMPA permeability assay; PAMPA, 5 hr)?
A: 0.00798 ×10⁻⁶ cm/s

Q: What about the Ki (PDGFRβ [1]; [4]) of the same molecule?
A: 0.0324 µM

Q: And the IC50 (PDGFRβ [2]; [5])?
A: 0.0257 µM

Q: What about the “Cell viability at 100 nM (%)” value (MRC5 cells) of the same molecule?
A: 96.5%

Q: And the “Cell viability at 300 nM (%)” value (MRC5 cells)?
A: 91.8%

Q: And the “Cell viability at 1000 nM (%)” value (MRC5 cells)?
A: 83.9%

Q: For `COC(=O)c1cc2c(cc1C)/C(=C(/Nc1ccc(C(=O)N(C)OCCN3C[C@@H]4C[C@H]3CN4)cc1)c1ccccc1)C(=O)N2` [Example 59], which recovery at 5 hr, 10 μM (PAMPA permeability assay; [3]) is on record?
A: 69.6%

Q: And the Papp at 5 h, 10 μM (PAMPA permeability assay; PAMPA, 5 hr)?
A: 0.0364 ×10⁻⁶ cm/s

Q: And the Ki (PDGFRβ [1]; [4])?
A: 0.00919 µM

Q: What about the IC50 (PDGFRβ [2]; [5]) of the same molecule?
A: 0.0254 µM

Q: What about the “Cell viability at 100 nM (%)” value (MRC5 cells) of the same molecule?
A: 123.5%

Q: And the “Cell viability at 300 nM (%)” value (MRC5 cells)?
A: 107.7%

Q: And the “Cell viability at 1000 nM (%)” value (MRC5 cells)?
A: 103.8%

Q: With `COC(=O)c1cc2c(cc1C)/C(=C(/Nc1ccc(C(=O)N(C)OCCN3C4CCC3CNC4)cc1)c1ccccc1)C(=O)N2` [Example 60] as the molecule, how does the Papp at 5 h, 10 μM (PAMPA permeability assay; PAMPA, 5 hr) read?
A: 0.0503 ×10⁻⁶ cm/s

Q: What about the recovery at 5 hr, 10 μM (PAMPA permeability assay; pH 7, PAMPA, donor and acceptor compartments) of the same molecule?
A: 69.2%

Q: And the Ki (PDGFRβ [1]; [4])?
A: 0.013 µM

Q: What about the IC50 (PDGFRβ [2]; [5]) of the same molecule?
A: 0.0056 µM

Q: And the “Cell viability at 100 nM (%)” value (MRC5 cells)?
A: 88.8%

Q: And the “Cell viability at 300 nM (%)” value (MRC5 cells)?
A: 84.4%

Q: What about the “Cell viability at 1000 nM (%)” value (MRC5 cells) of the same molecule?
A: 0.2%

Q: With `CCN1CCN(CCONC(=O)c2ccc(N/C(=C3\C(=O)Nc4cc(C(=O)OC)c(C)cc43)c3ccccc3)cc2)CC1` [Example 36] as the molecule, how does the recovery at 5 hr, 10 μM (PAMPA permeability assay; [3]) read?
A: 53.1%

Q: What about the Papp at 5 h, 10 μM (PAMPA permeability assay; PAMPA, 5 hr) of the same molecule?
A: 0.0301 ×10⁻⁶ cm/s

Q: What about the Ki (PDGFRβ [1]; [4]) of the same molecule?
A: 0.00846 µM

Q: What about the IC50 (PDGFRβ [2]; [5]) of the same molecule?
A: 0.00944 µM

Q: What about the “Cell viability at 100 nM (%)” value (MRC5 cells) of the same molecule?
A: 108.8%

Q: And the “Cell viability at 300 nM (%)” value (MRC5 cells)?
A: 93%

Q: And the “Cell viability at 1000 nM (%)” value (MRC5 cells)?
A: 65.9%

Q: Which recovery at 5 hr, 10 μM (PAMPA permeability assay; [3]) does the source give for `COC(=O)c1ccc2c(c1)NC(=O)/C2=C(\Nc1ccc(C(=O)NOCCN2CCN(C)CC2)c(F)c1)c1ccccc1` [Example 33] here?
A: 71.9%

Q: What about the Papp at 5 h, 10 μM (PAMPA permeability assay; PAMPA, 5 hr) of the same molecule?
A: 0.00743 ×10⁻⁶ cm/s

Q: What about the Ki (PDGFRβ [1]; [4]) of the same molecule?
A: 0.00847 µM

Q: What about the IC50 (PDGFRβ [2]; [5]) of the same molecule?
A: 0.00899 µM

Q: What about the “Cell viability at 100 nM (%)” value (MRC5 cells) of the same molecule?
A: 110.7%

Q: What about the “Cell viability at 300 nM (%)” value (MRC5 cells) of the same molecule?
A: 101.3%

Q: And the “Cell viability at 1000 nM (%)” value (MRC5 cells)?
A: 91.3%

Q: For `COC(=O)c1ccc2c(c1)NC(=O)/C2=C(\Nc1ccc(S(=O)(=O)N(C)OCCN2CCN(C)CC2)cc1)c1ccccc1` [Example 25], which recovery at 5 hr, 10 μM (PAMPA permeability assay; [3]) is on record?
A: 41.5%

Q: What about the Papp at 5 h, 10 μM (PAMPA permeability assay; PAMPA, 5 hr) of the same molecule?
A: 30 ×10⁻⁶ cm/s

Q: And the Ki (PDGFRβ [1]; [4])?
A: 0.0198 µM

Q: And the IC50 (PDGFRβ [2]; [5])?
A: 0.0194 µM

Q: What about the “Cell viability at 100 nM (%)” value (MRC5 cells) of the same molecule?
A: 108.5%

Q: What about the “Cell viability at 300 nM (%)” value (MRC5 cells) of the same molecule?
A: 104.8%

Q: What about the “Cell viability at 1000 nM (%)” value (MRC5 cells) of the same molecule?
A: 79.3%

Q: Which recovery at 5 hr, 10 μM (PAMPA permeability assay; [3]) does the source give for `COC(=O)c1cc2c(cc1C)/C(=C(/Nc1ccc(S(=O)(=O)N(C)OCCN(C)CCO)cc1)c1ccccc1)C(=O)N2` [Example 10, (Z)-Methyl 3-(((4-(N-(2-((2-hydroxyethyl)(methyl)amino)ethoxy)-N-methylsulfamoyl)phenyl)amino)(phenyl)methylene)-5-methyl-2-oxoindoline-6-carboxylate] here?
A: 92.6%

Q: And the Papp at 5 h, 10 μM (PAMPA permeability assay; PAMPA, 5 hr)?
A: 24.8 ×10⁻⁶ cm/s

Q: What about the Ki (PDGFRβ [1]) of the same molecule?
A: 0.0174 µM

Q: And the IC50 (PDGFRβ [2])?
A: 0.0136 µM

Q: And the “Cell viability at 100 nM (%)” value (MRC5 cells)?
A: 105.9%

Q: What about the “Cell viability at 300 nM (%)” value (MRC5 cells) of the same molecule?
A: 100.9%

Q: What about the “Cell viability at 1000 nM (%)” value (MRC5 cells) of the same molecule?
A: 42%

Q: What does the source list for `COC(=O)c1ccc2c(c1)NC(=O)/C2=C(\Nc1ccc(C(=O)NOCCCN(C)C)cc1)c1ccccc1` [Example 19]?
A: recovery at 5 hr, 10 μM (PAMPA permeability assay; [3]): 54.6%; Papp at 5 h, 10 μM (PAMPA permeability assay; PAMPA, 5 hr): 0.00329 ×10⁻⁶ cm/s; Ki (PDGFRβ [1]; [4]): 0.00962 µM; IC50 (PDGFRβ [2]; [5]): 0.00595 µM; Cell viability at 100 nM (%) (MRC5 cells): 108.3%; Cell viability at 300 nM (%) (MRC5 cells): 92.7%; Cell viability at 1000 nM (%) (MRC5 cells): 76.9%
